# Measured values reported in patent publication US20220339143A1, “TAK-925 FOR USE IN TREATING NARCOLEPSY” (Takeda Pharmaceutical Company Limited, priority 2019, published 2022).
# Tested on: patients with narcolepsy type 1 (NT1)
# Assay: Subjective daytime sleepiness as assessed by Karolinska Sleepiness Scale (KSS), single dose (Cohorts 5, 6, 7)
# Type: in vivo, human
# Details: for KSS Change from Baseline, Mean / KSS Change from Baseline, Median / KSS Observed Value at Visit, Mean / KSS Observed Value at Visit, Median: Cmpd A 5 mg (N = 6)
# Experimental: Daytime sleepiness as assessed by the Karolinska Sleepiness Scale (KSS).
# Daytime sleepiness as assessed by KSS at predose and hourly until 11 hours after the start of infusion is presented in Table 13 as summary, in Table 14 as ANOVA and in Table 15 as ANOVA of change from baseline.
smiles,measurement,setting,value
"COC(=O)N1CCC[C@H](NS(C)(=O)=O)[C@@H]1CO[C@H]1CC[C@@H](c2ccccc2)CC1 [Compound A, methyl (2R,3S)-3-((methylsulfonyl)amino)-2-(((cis-4-phenylcyclohexyl)oxy)methyl)piperidine-1-carboxylate]","LS mean difference (95% CI) of KSS vs placebo during the 9 hour infusion, upper end of range",5 mg,"−0.667 (−2.641, 1.307)"
same,"Change from Baseline in KSS, ANOVA Estimate (Cmpd A - Placebo)","5 mg, 1 hr",−2.833
same,"KSS, ANOVA Estimate (Cmpd A - Placebo)","5 mg, 1 hr",−2.000
same,"Change from Baseline in KSS, ANOVA Estimate (Cmpd A - Placebo)","5 mg, 2 hr",−4.333
same,"KSS, ANOVA Estimate (Cmpd A - Placebo)","5 mg, 2 hr",−3.500
same,"Change from Baseline in KSS, ANOVA Estimate (Cmpd A - Placebo)","5 mg, 3 hr",−2.167
same,"KSS, ANOVA Estimate (Cmpd A - Placebo)","5 mg, 3 hr",−1.333
same,"Change from Baseline in KSS, ANOVA Estimate (Cmpd A - Placebo)","5 mg, 4 hr",−4.167
same,"KSS, ANOVA Estimate (Cmpd A - Placebo)","5 mg, 4 hr",−3.333
same,"Change from Baseline in KSS, ANOVA Estimate (Cmpd A - Placebo)","5 mg, 5 hr",−3.500
same,"KSS, ANOVA Estimate (Cmpd A - Placebo)","5 mg, 5 hr",−2.667
same,"Change from Baseline in KSS, ANOVA Estimate (Cmpd A - Placebo)","5 mg, 6 hr",−4.333
same,"KSS, ANOVA Estimate (Cmpd A - Placebo)","5 mg, 6 hr",−3.500
same,"Change from Baseline in KSS, ANOVA Estimate (Cmpd A - Placebo)","5 mg, 7 hr",−4.333
same,"KSS, ANOVA Estimate (Cmpd A - Placebo)","5 mg, 7 hr",−3.500
same,"Change from Baseline in KSS, ANOVA Estimate (Cmpd A - Placebo)","5 mg, 8 hr",−3.500
same,"KSS, ANOVA Estimate (Cmpd A - Placebo)","5 mg, 8 hr",−2.667
same,"Change from Baseline in KSS, ANOVA Estimate (Cmpd A - Placebo)","5 mg, 9 hr",−1.500
same,"KSS, ANOVA Estimate (Cmpd A - Placebo)","5 mg, 9 hr",−0.667
same,"Change from Baseline in KSS, ANOVA Estimate (Cmpd A - Placebo)","5 mg, 10 hr",−2.000
same,"KSS, ANOVA Estimate (Cmpd A - Placebo)","5 mg, 10 hr",−1.167
same,"Change from Baseline in KSS, ANOVA Estimate (Cmpd A - Placebo)","5 mg, 11 hr",−0.167
same,"KSS, ANOVA Estimate (Cmpd A - Placebo)","5 mg, 11 hr",0.667
same,"LS mean difference (95% CI) of KSS vs placebo during the 9 hour infusion, lower end of range","5 mg, at 2 hour, 6 hour and 7 hour after the start of infusion",−3.500
same,"LS mean difference (95% CI) of KSS vs placebo during the 9 hour infusion, lower end of range",11.2 mg,"−4.000 (−7.331, −0.669)"
same,"LS mean difference (95% CI) of KSS vs placebo during the 9 hour infusion, upper end of range",11.2 mg,"−1.500 (−3.439, 0.439)"
same,"Change from Baseline in KSS, ANOVA Estimate (Cmpd A - Placebo)","11.2 mg, 1 hr",−4.500
same,"KSS, ANOVA Estimate (Cmpd A - Placebo)","11.2 mg, 1 hr",−3.500
same,"Change from Baseline in KSS, ANOVA Estimate (Cmpd A - Placebo)","11.2 mg, 2 hr",−4.500
same,"KSS, ANOVA Estimate (Cmpd A - Placebo)","11.2 mg, 2 hr",−3.500
same,"Change from Baseline in KSS, ANOVA Estimate (Cmpd A - Placebo)","11.2 mg, 3 hr",−2.500
same,"KSS, ANOVA Estimate (Cmpd A - Placebo)","11.2 mg, 3 hr",−1.500
same,"Change from Baseline in KSS, ANOVA Estimate (Cmpd A - Placebo)","11.2 mg, 4 hr",−5.000
same,"KSS, ANOVA Estimate (Cmpd A - Placebo)","11.2 mg, 4 hr",−4.000
same,"Change from Baseline in KSS, ANOVA Estimate (Cmpd A - Placebo)","11.2 mg, 5 hr",−4.000
same,"KSS, ANOVA Estimate (Cmpd A - Placebo)","11.2 mg, 5 hr",−3.000
same,"Change from Baseline in KSS, ANOVA Estimate (Cmpd A - Placebo)","11.2 mg, 6 hr",−4.000
same,"KSS, ANOVA Estimate (Cmpd A - Placebo)","11.2 mg, 6 hr",−3.000
same,"Change from Baseline in KSS, ANOVA Estimate (Cmpd A - Placebo)","11.2 mg, 7 hr",−4.500
same,"KSS, ANOVA Estimate (Cmpd A - Placebo)","11.2 mg, 7 hr",−3.500
same,"Change from Baseline in KSS, ANOVA Estimate (Cmpd A - Placebo)","11.2 mg, 8 hr",−3.500
same,"KSS, ANOVA Estimate (Cmpd A - Placebo)","11.2 mg, 8 hr",−2.500
same,"Change from Baseline in KSS, ANOVA Estimate (Cmpd A - Placebo)","11.2 mg, 9 hr",−3.000
same,"KSS, ANOVA Estimate (Cmpd A - Placebo)","11.2 mg, 9 hr",−2.000
same,"Change from Baseline in KSS, ANOVA Estimate (Cmpd A - Placebo)","11.2 mg, 10 hr",−2.500
same,"KSS, ANOVA Estimate (Cmpd A - Placebo)","11.2 mg, 10 hr",−1.500
same,"Change from Baseline in KSS, ANOVA Estimate (Cmpd A - Placebo)","11.2 mg, 11 hr",−2.000
same,"KSS, ANOVA Estimate (Cmpd A - Placebo)","11.2 mg, 11 hr",−1.000
same,"LS mean difference (95% CI) of KSS vs placebo during the 9 hour infusion, lower end of range",44.8 mg,"−6.947 (−9.139, −4.756)"
same,"LS mean difference (95% CI) of KSS vs placebo during the 9 hour infusion, upper end of range",44.8 mg,"−2.868 (−6.851, 1.114)"
same,"Change from Baseline in KSS, ANOVA Estimate (Cmpd A - Placebo)","44.8 mg, 1 hr",−5.237
same,"KSS, ANOVA Estimate (Cmpd A - Placebo)","44.8 mg, 1 hr",−6.947
same,"Change from Baseline in KSS, ANOVA Estimate (Cmpd A - Placebo)","44.8 mg, 2 hr",−3.053
same,"KSS, ANOVA Estimate (Cmpd A - Placebo)","44.8 mg, 2 hr",−4.763
same,"Change from Baseline in KSS, ANOVA Estimate (Cmpd A - Placebo)","44.8 mg, 3 hr",−1.553
same,"KSS, ANOVA Estimate (Cmpd A - Placebo)","44.8 mg, 3 hr",−3.263
same,"Change from Baseline in KSS, ANOVA Estimate (Cmpd A - Placebo)","44.8 mg, 4 hr",−2.184
same,"KSS, ANOVA Estimate (Cmpd A - Placebo)","44.8 mg, 4 hr",−3.895
same,"Change from Baseline in KSS, ANOVA Estimate (Cmpd A - Placebo)","44.8 mg, 5 hr",−2.026
same,"KSS, ANOVA Estimate (Cmpd A - Placebo)","44.8 mg, 5 hr",−3.737
same,"Change from Baseline in KSS, ANOVA Estimate (Cmpd A - Placebo)","44.8 mg, 6 hr",−1.158
same,"KSS, ANOVA Estimate (Cmpd A - Placebo)","44.8 mg, 6 hr",−2.868
same,"Change from Baseline in KSS, ANOVA Estimate (Cmpd A - Placebo)","44.8 mg, 7 hr",−3.737
same,"KSS, ANOVA Estimate (Cmpd A - Placebo)","44.8 mg, 7 hr",−5.447
same,"Change from Baseline in KSS, ANOVA Estimate (Cmpd A - Placebo)","44.8 mg, 8 hr",−2.921
same,"KSS, ANOVA Estimate (Cmpd A - Placebo)","44.8 mg, 8 hr",−4.632
same,"Change from Baseline in KSS, ANOVA Estimate (Cmpd A - Placebo)","44.8 mg, 9 hr",−2.868
same,"KSS, ANOVA Estimate (Cmpd A - Placebo)","44.8 mg, 9 hr",−4.579
same,"Change from Baseline in KSS, ANOVA Estimate (Cmpd A - Placebo)","44.8 mg, 10 hr",−0.632
same,"KSS, ANOVA Estimate (Cmpd A - Placebo)","44.8 mg, 10 hr",−2.342
same,"Change from Baseline in KSS, ANOVA Estimate (Cmpd A - Placebo)","44.8 mg, 11 hr",0.974
same,"KSS, ANOVA Estimate (Cmpd A - Placebo)","44.8 mg, 11 hr",−0.737
same,"KSS Change from Baseline, Mean",1 hr after start of infusion,−2.3
same,"KSS Change from Baseline, Median",1 hr after start of infusion,−2.5
same,"KSS Observed Value at Visit, Mean",1 hr after start of infusion,2.7
same,"KSS Observed Value at Visit, Median",1 hr after start of infusion,2.5
same,"KSS Change from Baseline, Mean",2 hr after start of infusion,−2.8
same,"KSS Change from Baseline, Median",2 hr after start of infusion,−2.5
same,"KSS Observed Value at Visit, Mean",2 hr after start of infusion,2.2
same,"KSS Observed Value at Visit, Median",2 hr after start of infusion,2.0
same,"KSS Change from Baseline, Mean",3 hr after start of infusion,−3.2
same,"KSS Change from Baseline, Median",3 hr after start of infusion,−3.5
same,"KSS Observed Value at Visit, Mean",3 hr after start of infusion,1.8
same,"KSS Observed Value at Visit, Median",3 hr after start of infusion,1.5
same,"KSS Change from Baseline, Mean",4 hr after start of infusion,−2.8
same,"KSS Change from Baseline, Median",4 hr after start of infusion,−2.5
same,"KSS Observed Value at Visit, Mean",4 hr after start of infusion,2.2
same,"KSS Observed Value at Visit, Median",4 hr after start of infusion,1.5
same,"KSS Change from Baseline, Mean",5 hr after start of infusion,−3.0
same,"KSS Change from Baseline, Median",5 hr after start of infusion,−3.0
same,"KSS Observed Value at Visit, Mean",5 hr after start of infusion,2.0
same,"KSS Observed Value at Visit, Median",5 hr after start of infusion,2.0
same,"KSS Change from Baseline, Mean",6 hr after start of infusion,−3.2
same,"KSS Change from Baseline, Median",6 hr after start of infusion,−3.5
same,"KSS Observed Value at Visit, Mean",6 hr after start of infusion,1.8
same,"KSS Observed Value at Visit, Median",6 hr after start of infusion,1.5
same,"KSS Change from Baseline, Mean",7 hr after start of infusion,−2.5
same,"KSS Change from Baseline, Median",7 hr after start of infusion,−2.5
same,"KSS Observed Value at Visit, Mean",7 hr after start of infusion,2.5
same,"KSS Observed Value at Visit, Median",7 hr after start of infusion,2.5
same,"KSS Change from Baseline, Mean",8 hr after start of infusion,−2.7
same,"KSS Change from Baseline, Median",8 hr after start of infusion,−3.0
same,"KSS Observed Value at Visit, Mean",8 hr after start of infusion,2.3
